Reference: PubChem BioAssay (NCI)
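Exposure lasted 48 hours, with cells grown in 96-well plates and compounds tested at five concentrations. TGI marks complete inhibition of growth.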

How the values were obtained:
Experiment in all cases: inhibition of tumour cell growth, NCI panel, 48 h
EKVX NSCLC = tested on: EKVX NSCLC
MDA-MB-435 = tested on: MDA-MB-435
SR leukemia = tested on: SR leukemia
OVCAR-4 ovarian = tested on: OVCAR-4 ovarian
SK-MEL-2 melanoma = tested on: SK-MEL-2 melanoma
SN12C renal = tested on: SN12C renal
MALME-3M melanoma = tested on: MALME-3M melanoma
HT29 colon = tested on: HT29 colon
OVCAR-5 ovarian = tested on: OVCAR-5 ovarian
SNB-19 CNS = tested on: SNB-19 CNS

| SMILES | TGI (EKVX NSCLC) [µM] | TGI (MDA-MB-435) [µM] | TGI (SR leukemia) [µM] | TGI (OVCAR-4 ovarian) [µM] | TGI (SK-MEL-2 melanoma) [µM] | TGI (SN12C renal) [µM] | TGI (MALME-3M melanoma) [µM] | TGI (HT29 colon) [µM] | TGI (OVCAR-5 ovarian) [µM] | TGI (SNB-19 CNS) [µM] |
| --- | --- | --- | --- | --- | --- | --- | --- | --- | --- | --- |
| CCCCCCCCCCCCP(=O)(O)OCC(N)C(=O)O (stereo not drawn) | > 100 | 34.6 | > 100 | > 100 | 91.9 | 42.4 | > 100 | > 100 | > 100 | 44.7 |
| COc1c(O)cc(C(=O)O[C@@H]2Cc3c(O)cc(O)cc3O[C@@H]2c2cc(O)c(O)c(O)c2)cc1O | 61.6 | 33.3 | 95.8 | 46.4 | > 100 | 37.3 | > 100 | 37.1 | > 100 | 43 |
| CC1(C)OC(=S)N(c2ccccc2)C12C=Cc1cc3ccccc3cc1O2 (stereo not drawn) | > 100 | > 100 | > 100 | > 100 | > 100 | > 100 | – | > 100 | > 100 | > 100 |
| O=C1O[C@H]2[C@@H]3OC(=O)c4cc(O)c(O)c(O)c4-c4c(cc(O)c(O)c4O)C(=O)OC[C@H]2O[C@@H](OC(=O)c2cc(O)c(O)c(O)c2)[C@@H]3OC(=O)c2cc(O)c(O)c3c2[C@@H]2C1=CC(=O)C(O)(O)C2(O)O3 (stereo partly drawn) | > 100 | 32.2 | > 100 | 39.4 | > 100 | 32.3 | > 100 | 34.2 | 67.1 | > 100 |
| NC(CCCCNC(=O)C(Cc1ccccc1)NC(=O)OCc1ccccc1)C(=O)NC(CCCCNC(=O)C(Cc1ccccc1)NC(=O)OCc1ccccc1)C(=O)NC(CCCCNC(=O)C(Cc1ccccc1)NC(=O)OCc1ccccc1)C(=O)NC(CCCCNC(=O)C(Cc1ccccc1)NC(=O)OCc1ccccc1)C(=O)NC(CCCCNC(=O)C(Cc1ccccc1)NC(=O)OCc1ccccc1)C(=O)NC(CCCCNC(=O)C(Cc1ccccc1)NC(=O)OCc1ccccc1)C(=O)O (stereo not drawn) | – | > 100 | > 100 | > 100 | > 100 | > 100 | > 100 | > 100 | > 100 | > 100 |
| CC(=O)Nc1ccc(-c2nc3ccccc3s2)cc1O | – | > 100 | > 100 | > 100 | > 100 | > 100 | – | > 100 | 93.8 | > 100 |
| CCOP(C)(=O)C(Nc1ccc(F)cc1)c1ccc(F)cc1 (stereo not drawn) | > 100 | > 100 | > 100 | > 100 | > 100 | > 100 | > 100 | > 100 | > 100 | > 100 |
| N=c1oc2c(Cl)cc(Cl)cc2cc1C(=O)Nc1ccccn1 | > 100 | > 100 | 65.9 | > 100 | > 100 | > 100 | > 100 | > 100 | > 100 | > 100 |
| C/C(=N\Nc1nc2ccccc2o1)c1ccncn1 | > 100 | > 75.8 | > 100 | > 100 | > 25.8 | > 100 | 97.5 | > 35.6 | > 100 | > 100 |
| CCCCP(CCCC)(CCCC)=C(C(=O)OC)C(C(=O)OC)=C1SC(C(=O)OC)=C(C(=O)OC)S1 | 68.5 | 28.1 | > 100 | 52.5 | 63.1 | 29.8 | 41.1 | 30.7 | 52.5 | 49 |
| CCN(CC)c1nc(N(C)C)c2cc(OC)ccc2n1 | > 100 | > 100 | 76.9 | > 100 | > 100 | 89.3 | 62 | > 100 | > 100 | > 100 |
| Cc1cc(-c2nc3cc(F)c(F)cc3s2)ccc1N | > 100 | > 100 | > 100 | > 100 | > 100 | > 100 | > 100 | > 100 | > 100 | > 100 |
| O=C1NN(c2ccccc2)C(=O)C2C3c4ccccc4C(c4ccccc43)C12 (stereo not drawn) | > 100 | > 100 | > 100 | > 100 | > 100 | > 100 | > 100 | > 100 | – | > 100 |
| CC1(C)CC[C@]2(C(=O)O)CC[C@]3(C)C(=CC[C@@H]4[C@@]5(C)CC[C@H](OC6OC(CO)C(O)C(O)C6OC6OC(CO)C(O)C(O)C6O)C(C)(C)[C@@H]5CC[C@]43C)[C@@H]2C1 (stereo partly drawn) | 35.4 | 35.7 | 68 | 30.5 | 2.48 | 33.2 | 30.1 | 30.2 | 12.5 | 32.8 |
| O=C1OC(c2ccccc2)N/C1=C\c1ccc2c(c1)OCO2 (stereo not drawn) | > 100 | > 100 | 63.9 | > 88 | > 100 | > 100 | – | > 100 | > 100 | > 100 |
| Cc1nc2c(ncn2CCO)c(=O)[nH]1 | > 100 | > 100 | > 100 | > 100 | – | > 100 | > 100 | > 100 | > 100 | > 100 |
